Experimental data taken from patent US6774143B1, “Method for treating cells resistant to antineoplastic agents” (Novartis AG, priority 2003, dated 2004).
≈ marks a conversion by molar mass, not a printed value.

Tests used:
1A9 cells = assay: In vitro cytotoxicity assay (MTT); format: cell-based; settings: Homo sapiens, 1A9, 1A9 cells; cytotoxic control; experiment not specified; read-out: IC50
Procedure: (§1) 1A9 and 1A9PTX22 cells are plated in 96-well plates at 5×10^4 cells/well, plced in a tissue culture incubator and allowed to attach overnight. The next morning, the number of viable cells in the “time 0” plate (3 wells for each cell line) is determined using an MTT assay (Alley M C, et al., Cancer Res. 1988, 48:589-601).
(§2) At the same time drugs are added in serial, 10-fold dilutions, to the experimental plates. Corresponding vehicles are added to control plates. Experimental and control plates are then incubated in the tissue culture incubator for 72 hours. After the incubation the number of viable cells is determined in each plate using the MTT assay. IC50s (defined as a concentration of a given compound causing 50% inhibition of cell growth) are determined by comparing cell growth in the drug-treated plate (T−T0) to the cell growth in the corresponding control plate (C−T0). For each experiment results are calculated using average numbers from two sets of plates.
(§3) Discodermolide is isolated from the sponge Discodermia dissoluta using the method of Gunasekera SP (supra). Multiple batches of compound of similar purity (all>95% pure, as determined by mass spectrometry, and nuclear magnetic resonance analysis) are used throughout the various studies. For the in vitro cytotoxicity assays all compounds are dissolved in DMSO and are added to the plates with cells to obtain desired concentrations. […] Paclitaxel is purchased from Sigma/Aldrich, (St. Louis, Mo.). For the in vivo hollow fiber assay, solid discodermolide is dissolved in pure ethanol to create a stock solution which is diluted just before dosing with Cremophor EL and D5W to a final concentration of 16.7% Cremophor EL, 8.3% ethanol and 75% D5W. The compound is administered to mice as a single, 15 mg/kg iv injection. Positive control animals receive clinical formulations of paclitaxel (TAXOL) diluted 4-fold with D5W (12.5% Cremophor El, 12.5% ethanol and 75% D5W final concentrations) and administered iv, at 15 mg/kg, once daily for five consecutive days. Vehicle controls are administered according to the corresponding drug schedules.

[1] = test system: 1A9PTX22 cells (β-tubulin mutation); assay: In vitro cytotoxicity assay (MTT); format: cell-based, human
Procedure: as §1, §2, §3

For `COc1cccc2c1C(=O)c1c(O)c3c(c(O)c1C2=O)C[C@@](O)(C(=O)CO)C[C@@H]3O[C@H]1C[C@H](N)[C@H](O)[C@H](C)O1` [Doxorubicin], the IC50 (1A9 cells) was 3 ng/mL (≈ 5.52 nM), the IC50 ([1]; Homo sapiens, 1A9/ptx-22, 1A9PTX22 cells, cytotoxic control, experiment not specified, read-out: IC50) was 3 to 5 ng/mL (≈ 5.52 to 9.2 nM) and the “fold resistance of 1A9PTX22 versus parental 1A9” value ([1]; from IC50s of the two in vitro experiments) was 2 fold.
